Test results published in BindingDB's records for doi:10.1016/j.bioorg.2016.03.001 (Jishou University, 2016).
pIC50: −log10 of the molar value.

What follows are compounds tested against Alpha-glucosidase MAL12 (Saccharomyces cerevisiae (strain ATCC 204508 / S288c), UniProt P53341) (assay: In vitro Assay of alpha-Glucosidasee Inhibitory Activity). Conditions: pH 6.8.
Experimental: The test compounds were dissolved in DMSO to prepare the required distributing concentration. α-Glucosidase inhibitory activity was assayed by using 50 mM phosphate buffer (pH 6.8) at 37 °C. The enzymatic reaction mixture composed of 20 µL α-glucosidase (0.2 U), 10 µL of various concentrations of test compounds and 140 µL of phosphate buffer was incubated at 37 °C for 10 min. Then 0.5 mM p-nitrophenyl α-D-glucopyranoside (30 µL) was added to the mixture as a substrate. After further incubation at 37 °C for 30 min. The absorbance was measured spectrophotometrically at 405 nm. The sample solution was replaced by DMSO as a control. Acarbose was used as a positive control. All experiments were carried out in triplicates.

Alpha-glucosidase MAL12, sequence (P53341 whole entry): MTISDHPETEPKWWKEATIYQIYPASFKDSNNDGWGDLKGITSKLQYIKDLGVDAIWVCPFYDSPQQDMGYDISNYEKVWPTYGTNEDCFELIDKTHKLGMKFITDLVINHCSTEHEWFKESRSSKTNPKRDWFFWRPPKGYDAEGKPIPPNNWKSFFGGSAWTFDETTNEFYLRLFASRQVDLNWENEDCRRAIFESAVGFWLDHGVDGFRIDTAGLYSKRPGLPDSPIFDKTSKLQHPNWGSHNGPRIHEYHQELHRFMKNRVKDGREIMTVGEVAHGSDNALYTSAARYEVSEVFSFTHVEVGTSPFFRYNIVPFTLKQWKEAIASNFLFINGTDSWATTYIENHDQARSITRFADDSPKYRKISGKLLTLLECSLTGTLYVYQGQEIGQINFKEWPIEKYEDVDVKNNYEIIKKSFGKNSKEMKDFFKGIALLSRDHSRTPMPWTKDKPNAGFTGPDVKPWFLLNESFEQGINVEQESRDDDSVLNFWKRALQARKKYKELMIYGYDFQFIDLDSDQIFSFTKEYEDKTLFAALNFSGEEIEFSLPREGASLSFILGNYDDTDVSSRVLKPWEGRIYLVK

Structure (SMILES)	pIC50
O=C(N/N=C/c1ccccc1O)c1nc(-c2cc3ccccc3oc2=O)cs1 [(E)-N'-(2-Hydroxybenzylidene)-4-(2-oxo-2H-chromen-3-yl)thiazole-2-carbohydrazide (7b)]	4.43
O=C(N/N=C/c1cccc(F)c1)c1nc(-c2cc3ccccc3oc2=O)cs1 [(E)-N'-(3-Fluorobenzylidene)-4-(2-oxo-2H-chromen-3-yl)thiazole-2-carbohydrazide (7q)]	4.65
O=C(N/N=C/c1ccc(O)cc1)c1nc(-c2cc3ccccc3oc2=O)cs1 [(E)-N'-(4-Hydroxybenzylidene)-4-(2-oxo-2H-chromen-3-yl)thiazole-2-carbohydrazide (7c)]	4.60
O=C(N/N=C/c1ccc(O)c(O)c1)c1nc(-c2cc3ccccc3oc2=O)cs1 [(E)-N'-(3,4-Dihydroxybenzylidene)-4-(2-oxo-2H-chromen-3-yl)thiazole-2-carbohydrazide (7k)]	4.74
COc1ccccc1/C=N/NC(=O)c1nc(-c2cc3ccccc3oc2=O)cs1 [(E)-N'-(2-Methoxybenzylidene)-4-(2-oxo-2H-chromen-3-yl)thiazole-2-carbohydrazide (7s)]	4.19
COc1ccc(/C=N/NC(=O)c2nc(-c3cc4ccccc4oc3=O)cs2)cc1 [(E)-N'-(4-Methoxybenzylidene)-4-(2-oxo-2H-chromen-3-yl)thiazole-2-carbohydrazide (7a)]	4.09
COc1ccc(/C=N/NC(=O)c2nc(-c3cc4ccccc4oc3=O)cs2)c(O)c1 [(E)-N'-(2-Hydroxy-4-methoxybenzylidene)-4-(2-oxo-2Hchromen-3-yl)thiazole-2-carbohydrazide (7i)]	4.52
O=C(N/N=C/c1ccccc1F)c1nc(-c2cc3ccccc3oc2=O)cs1 [(E)-N'-(2-Fluorobenzylidene)-4-(2-oxo-2H-chromen-3-yl)thiazole-2-carbohydrazide (7p)]	4.63

The next compounds have a higher pIC50 than those just listed; values first:

pIC50	Structure (SMILES)
4.78	O=C(N/N=C/c1ccc(O)c(F)c1)c1nc(-c2cc3ccccc3oc2=O)cs1 [(E)-N'-(3-Fluoro-4-hydroxybenzylidene)-4-(2-oxo-2Hchromen-3-yl)thiazole-2-carbohydrazide (7g)]
4.80	O=C(N/N=C/c1ccc(C(F)(F)F)cc1)c1nc(-c2cc3ccccc3oc2=O)cs1 [(E)-4-(2-Oxo-2H-chromen-3-yl)-N'-(4-(trifluoromethyl)benzylidene)thiazole-2-carbohydrazide (7o)]
4.85	O=C(N/N=C/c1cccc(Br)c1)c1nc(-c2cc3ccccc3oc2=O)cs1 [(E)-N'-(3-bromobenzylidene)-4-(2-oxo-2H-chromen-3-yl)thiazole-2-carbohydrazide (7r)]
4.98	O=C(N/N=C/c1ccc(Cl)cc1)c1nc(-c2cc3ccccc3oc2=O)cs1 [(E)-N'-(4-Chlorobenzylidene)-4-(2-oxo-2H-chromen-3-yl)thiazole-2-carbohydrazide (7m)]
4.99	CC(C)(C)c1cc(/C=N/NC(=O)c2nc(-c3cc4ccccc4oc3=O)cs2)c(O)c(C(C)(C)C)c1 [(E)-N'-(3,5-Di-tert-butyl-2-hydroxybenzylidene)-4-(2-oxo-2Hchromen-3-yl)thiazole-2-carbohydrazide (7d)]
5.08	O=C(N/N=C/c1cc(Cl)ccc1O)c1nc(-c2cc3ccccc3oc2=O)cs1 [(E)-N'-(5-Chloro-2-hydroxybenzylidene)-4-(2-oxo-2Hchromen-3-yl)thiazole-2-carbohydrazide (7h)]
4.92	O=C(N/N=C/c1cccc(Cl)c1)c1nc(-c2cc3ccccc3oc2=O)cs1 [(E)-N'-(3-Chlorobenzylidene)-4-(2-oxo-2H-chromen-3-yl)thiazole-2-carbohydrazide (7n)]
